Measurements reported in patent US11690387B2, “Methods and related compositions for manufacturing food and feed” (priority 2017, dated 2023).

Legend:
target bacterial strains = details: against its target bacterial strains; cited from earlier work
Drosophila melanogaster [1] = assay: Development rate assay: time to adult emergence on diet seeded with Corynebacterium glutamicum (Example 8); format: in vivo; details: diet seeded with 10^9 CFUs of bacteria vs axenic/sterile diet; adults counted every 12 hours
Description: The media used to rear flies is cornmeal, molasses and yeast medium (11 g/l yeast, 54 g/l yellow cornmeal, 5 g/l agar, 66 ml/l molasses, and 4.8 ml/l propionic acid). All the components of the diet except propionic acid are heated together to 80° C. in deionized water with constant mixing for 30 minutes and let to cool to 60° C. Propionic acid is then mixed in and 50 ml of the diet is aliquoted into individual bottles and allowed to cool down and solidify. The flies are raised at 26° C., 16:8 hour light:dark cycle, at around 60% humidity.
On day one, 100 ul of a Corynebacterium glutamicum suspension in nutrient broth consisting of 10^9 colony forming units (CFUs) were added to five replicates of fly food. As controls, nutrient broth without the bacteria was added to five more bottles of fly food. Fertilized embryos collected from fruit flies were treated with 2% hypochlorite solution for five minutes and then washed with sterile water to remove any extracellular microbes from the embryos. 10 ul of the embryo suspension in water (one:three embryo:water suspension) was added to all the bacteria seeded and control fly food bottles. […] The time to adult emergence and the rate of emergence was measured in every replicate. From the time the first adult emerges from the pupa, the number of adult flies emerging was counted every 12 hours and rate of emergence was be computed.

fungi = details: cited from earlier work
Drosophila melanogaster [2] = assay: Larval mass assay: larval area on defined diet, axenic or mono-associated with one bacterium (Example 8); format: in vivo; details: after 13 days, 10-15 larvae per replicate, FIG. 3
From the text: For the experimental setup to measure the larval growth rate, defined diet was used (Piper et al., 2014, Nature Methods). Defined diet eliminates the effects of batch to batch variation in the ingredients used for the cornmeal based diet. In addition, the defined diet allows for the exclusion of individual components to test their effects on fly development.
To test whether the presence of bacteria producing amino acids can increase the body mass of developing larvae when raised on defined diet, we produced larvae that are axenic, and mono-associated with a single strain of bacterium. For these assays, three different bacteria were used, Corynebacterium glutamicum—a strain that produces glutamate, Corynebacterium glutamicum—a strain that produces methionine, and E. coli.
First, axenic embryos were generated. Fertilized embryos were collected from fruit flies over a 6 hour period on grape juice agar plates with yeast. To eliminate any bacterial contamination, the embryos were treated with 2% hypochlorite solution for five minutes and then washed thrice with sterile water. One volume of embryos was then suspended in 3 volumes of water.
The defined diet was aliquoted into vials and nine replicates were used for every condition being tested. […]
After 13 days, 10-15 randomly chosen larvae from each replicate were sampled, and their areas were measured, as a proxy to their biomass and weight. […]

Question: With nisin as the substance, how does the “concentration showing antimicrobial activity” value (target bacterial strains) read?
Answer: Its value is “single-digit nanomolar concentration”.

Question: With “Corynebacterium glutamicum [C. glutamicum Glu]” as the substance, how does the “time to reach adulthood from embryos” value (Drosophila melanogaster [1]) read?
Answer: Its value is “reach adulthood faster than their bacteria free counterparts”.

Question: With botrycidin AJ1316 as the substance, how does the antifungal activities (fungi) read?
Answer: Its antifungal activities is “have been shown to have antifungal activities”.

Question: For Corynebacterium glutamicum [C. glu-Met], which “larval body size (area of the larvae, proxy to biomass and weight)” value (Drosophila melanogaster [2]) is on record?
Answer: Its value is “largest body size on average”.

Question: For alirin B1, which antifungal activities (fungi) is on record?
Answer: The antifungal activities was “have been shown to have antifungal activities”.
